Two molecules from patent US8188101B2 (AstraZeneca AB, priority 2008, dated 2012) can be followed below.

The test system of this experiment is Aβ42 release. Put plainly: Aβ release in cells stably expressing APPswe, Meso Scale Discovery electrochemiluminescence assay. The format is cell-based, Human. Particulars: Homo sapiens, SH-SY5Y, HEK or SH-SY5Y cells stably expressing APPswe, 4-6 hours incubation with test compound. The method in brief: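 HEK or SH-SY5Y cells stably expressing APPswe, plated 15-24 h, then exposed to compound (diluted ×200 into fresh medium) for 4-6 h at 37 °C. Secreted Aβ42 in medium quantified by Meso Scale Discovery electrochemiluminescence with specific antibodies; cytotoxicity checked by cellular ATP content.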

For the molecule `COc1cc(Nc2nc(CCC3CCCO3)c3c(n2)CCN(C)C3)ccc1-n1cnc(C)c1` (centres unmarked) [Example 112, N-(3-Methoxy-4-(4-methyl-1H-imidazol-1-yl)phenyl)-6-methyl-4-(2-(tetrahydrofuran-2-yl)ethyl)-5,6,7,8-tetrahydropyrido[4,3-d]pyrimidin-2-amine], the IC50 (commonly the concentration needed to halve the response being measured) is 0.126 µM. Regarding `Cc1nccn1-c1ccc(Nc2nc3c(c(Cc4ccccc4)n2)C[S+]([O-])CC3)cc1` (centres unmarked) [Example 114, 4-Benzyl-N-[4-(2-methyl-1H-imidazol-1-yl)phenyl]-7,8-dihydro-5H-thiopyrano[4,3-d]pyrimidin-2-amine 6-oxide], the IC50 is 1.58 µM.
